Values quoted from earlier work in patent US20220184020A1, “Polyphenols as Modulators of Platelet Function” (Northeastern University, priority 2019, published 2022).

What was measured:
[1] = cited from earlier work; for Concentration in Blood: retrieved from HMDB, Table 2; for Max: maximum concentration detected in blood; for Max / Min: HMDB; for Min: minimum concentration detected in blood
[2] = in vivo models, recent studies; cited from earlier work
MCF7 cell line = conditions: MCF7, 1 μM, 6 hours; cited from earlier work
[3] = in vitro and in vivo models; cited from earlier work

Compound | Max [1] | Min [1] | other results
O=c1c(O)c(-c2ccc(O)c(O)c2)oc2cc(O)cc(O)c12 [quercetin] | – | – | Concentration in Blood [1]: [0.022-0.080 μM]
O=c1c(O)c(-c2cc(O)c(O)c(O)c2)oc2cc(O)cc(O)c12 [myricetin] | 45 µM | 45 µM | –
O=C(O)c1cc(O)c(O)c(O)c1 [gallic acid] | – | – | effects on vascular health [2]: protective effects on vascular health
COc1cc(-c2oc3cc(O)cc(O)c3c(=O)c2O)ccc1O [isorhamnetin] | 0.157 µM | 0.0388 µM | –
O=C(O)c1cccc(O)c1O [2,3-dihydroxybenzoic acid] | 0.129 µM | 0.129 µM | –
O=c1oc2cc(O)ccc2c2oc3cc(O)ccc3c12 [coumestrol] | 0.0123 µM | 0.0123 µM | –
O=C(O)c1ccccc1O [2-hydroxybenzoic acid] | 0.02 µM | 0.02 µM | –
O=C1C[C@@H](c2ccc(O)cc2)Oc2cc(O)cc(O)c21 [naringenin] | 0.02 µM | 0.00815 µM | –
O=c1c(-c2ccc(O)cc2)coc2cc(O)cc(O)c12 [genistein] | 0.525 µM | 0.00022 µM | number of Skin Diseases (SD) genes with perturbation score>2 (MCF7 cell line): 10; number of highly perturbed Cerebrovascular Disorders (CD) genes (MCF7 cell line): one; Concentration in Blood [1]: [0.006-0.525 μM]
O=c1oc2c(O)c(O)cc3c(=O)oc4c(O)c(O)cc1c4c23 [ellagic acid] | 0.067 µM | 0.067 µM | –
O=c1cc(-c2ccc(O)cc2)oc2cc(O)cc(O)c12 [apigenin] | 0.127 µM | 0.0106 µM | –
Oc1cc(O)c2c(c1)O[C@H](c1ccc(O)c(O)c1)[C@H](O)C2 [(-)-epicatechin] | 0.625 µM | 0.625 µM | Concentration in Blood [1]: 625 nM
Oc1ccccc1 [phenol] | 6.38 µM | 0.86 µM | –
O=C(O)Cc1ccccc1 [phenylacetic acid] | 80.36 µM | 10.28 µM | –
O=C(O[C@@H]1Cc2c(O)cc(O)cc2O[C@@H]1c1cc(O)c(O)c(O)c1)c1cc(O)c(O)c(O)c1 [(-)-epigallocatechin 3-O-gallate] | – | – | glucose-lowering effects [3]: glucose-lowering effects
COc1ccccc1O [guaiacol] | 8.5 µM | 8.5 µM | –
